# Results reported in paper PMC12152883, “Bile acids inhibit equilibrative adenosine transport to alter adenosine receptor signaling in cholestasis” (The Journal of Biological Chemistry, 2025).
# Biological target: T1, CNT2 (Homo sapiens, UniProt O43868)
# T1 construct: expressed in transfected cells; host or cells: Xenopus laevis oocytes injected with in vitro-transcribed capped mRNA
# T1 sequence (O43868 1-658): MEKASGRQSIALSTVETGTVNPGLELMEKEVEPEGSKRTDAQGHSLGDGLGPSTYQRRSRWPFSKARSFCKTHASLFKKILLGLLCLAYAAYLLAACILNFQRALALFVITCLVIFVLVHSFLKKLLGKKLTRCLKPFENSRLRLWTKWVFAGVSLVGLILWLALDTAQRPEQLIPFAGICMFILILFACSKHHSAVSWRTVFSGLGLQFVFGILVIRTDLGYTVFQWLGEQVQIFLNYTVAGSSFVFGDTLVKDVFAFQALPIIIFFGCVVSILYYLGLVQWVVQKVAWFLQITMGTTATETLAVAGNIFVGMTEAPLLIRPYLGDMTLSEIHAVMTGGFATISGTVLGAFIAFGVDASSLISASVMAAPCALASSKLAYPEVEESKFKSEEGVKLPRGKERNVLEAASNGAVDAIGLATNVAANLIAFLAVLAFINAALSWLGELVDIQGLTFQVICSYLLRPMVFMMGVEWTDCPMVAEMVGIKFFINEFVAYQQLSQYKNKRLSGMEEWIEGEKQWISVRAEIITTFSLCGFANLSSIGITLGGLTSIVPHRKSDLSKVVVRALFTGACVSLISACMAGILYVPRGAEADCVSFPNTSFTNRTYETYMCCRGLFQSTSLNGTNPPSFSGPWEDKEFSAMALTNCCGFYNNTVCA
# Assay: Radiolabeled BA transport in CNT2 mRNA-injected Xenopus oocytes
# Type: cell-based
# Settings: 3H-labelled BA, Na+-containing buffer, pH 7.4
# Description: We used a Xenopus oocyte-based transport assay that was previously used to examine BA transport by plasma membrane–directed ENT3 with a truncated N-terminus (that harbors lysosomal targeting motif) to experimentally verify whether ENT2 is capable of translocating BAs across the cell membrane ([24]). We tested both ENT1 and ENT2 along with CNT2, a purine nucleoside-specific concentrative transporter, to investigate their capacities to transport radiolabeled BAs. […] Transport was measured at pH 7.4, which is the closest pH to the pH of the extracellular fluid in which cells are exposed to solutes such as BAs to conduct plasma membrane transport ([29]).
# The generated pOX expression constructs were linearized with either the Not1 or Sac1 restriction enzymes. The digested products were purified via phenol‒chloroform extraction. The mRNAs were synthesized using mMESSAGE mMACHINE (Ambion) transcription kits according to the manufacturer’s instructions. The mRNAs were purified via lithium precipitation. Oocytes were procured from Ecocyte. Prior to experiments, procured oocytes were defolliculated by treating with collagenase A-OR II solution followed by washing with Barth’s solution. Following microscopic verification, selected oocytes were incubated to recover overnight at 25 °C in a shaker incubator. Fifty nanoliters (400–800 ng/μl) of equal amounts of mRNAs were injected into defolliculated oocytes the next day. Expression of plasmids was analyzed after RNA isolation from oocyte extracts and conducting qPCR analysis with gene-specific primers as described earlier ([30]). The injected oocytes were incubated at 15 °C for 24 h before transport assays were performed. The uptake of radiolabeled substrates was measured after a 30 min incubation in transport buffer (100 mM NaCl, 2 mM KCl, 1 mM CaCl2, 1 mM MgCl2, and 10 mM Hepes, pH 7.4) at room temperature. […] Individual oocytes were shaken overnight in 10% SDS for complete dissolution, and then the radioactivity was quantified with a Beckman liquid scintillation counter. […]
row,Compound,transport of BA by CNT2
1,"C[C@H](CCC(=O)O)[C@H]1CC[C@H]2[C@@H]3[C@H](O)C[C@@H]4C[C@H](O)CC[C@]4(C)[C@H]3C[C@H](O)[C@]12C [CA, cholic acid]",incapable of transporting
2,"C[C@H](CCC(=O)O)[C@H]1CC[C@H]2[C@@H]3CC[C@@H]4C[C@H](O)CC[C@]4(C)[C@H]3C[C@H](O)[C@]12C [DCA, deoxycholic acid]",incapable of transporting
3,"C[C@H](CCC(=O)NCCS(=O)(=O)O)[C@H]1CC[C@H]2[C@@H]3[C@H](O)C[C@@H]4C[C@H](O)CC[C@]4(C)[C@H]3C[C@H](O)[C@]12C [TCA, taurocholic acid]",incapable of transporting
